Reference: article PMC12136037, “Type II kinase inhibitors that target Parkinson’s disease–associated LRRK2” (Science Advances, 2025)

How the values were obtained:
Type in all cases: binding
LRRK2^KW = molecular target: T1, LRRK2^KW (Homo sapiens, UniProt Q5S007); assay: DSF thermal stabilization of LRRK2^KW; details: for ∆Tm (K): DSF, LRRK2^KW, 10 μM inhibitor
T1 construct: LRRK2 R1847 to E2527; His6-Z-tag (TEV cleavable) (N, cleaved yes); host or cells: Sf9 insect cells (baculovirus)
T1 sequence (Q5S007 1847-2527): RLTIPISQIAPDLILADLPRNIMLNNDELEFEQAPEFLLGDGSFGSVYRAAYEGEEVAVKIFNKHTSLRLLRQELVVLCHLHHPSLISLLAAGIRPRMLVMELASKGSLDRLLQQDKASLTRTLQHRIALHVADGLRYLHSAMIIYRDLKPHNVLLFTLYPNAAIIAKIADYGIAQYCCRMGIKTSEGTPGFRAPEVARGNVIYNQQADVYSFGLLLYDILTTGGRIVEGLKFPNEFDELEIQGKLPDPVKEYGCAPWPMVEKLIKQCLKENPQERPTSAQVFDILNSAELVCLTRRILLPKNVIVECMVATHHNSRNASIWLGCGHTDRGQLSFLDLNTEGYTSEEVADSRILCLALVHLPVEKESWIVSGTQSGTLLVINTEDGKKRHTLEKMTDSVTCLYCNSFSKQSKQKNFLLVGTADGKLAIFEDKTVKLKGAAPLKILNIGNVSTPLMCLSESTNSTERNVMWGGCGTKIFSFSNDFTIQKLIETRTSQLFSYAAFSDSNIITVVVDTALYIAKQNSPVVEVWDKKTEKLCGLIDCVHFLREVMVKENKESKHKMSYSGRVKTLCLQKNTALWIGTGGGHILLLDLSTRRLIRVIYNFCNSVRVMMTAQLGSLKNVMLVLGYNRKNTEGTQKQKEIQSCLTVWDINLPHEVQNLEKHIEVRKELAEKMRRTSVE
Method in brief: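 DSF on 4 μM LRRK2^KW in 20 mM Hepes pH 7.4, 150 mM NaCl, 0.5 mM TCEP, 0.5% glycerol, 20 μM GDP, 2.5 mM MgCl2 with SYPRO Orange; inhibitor at 10 μM. Tm was taken as the minimum of the first derivative of fluorescence versus temperature, relative to control.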

[1] = molecular target: T2, ~100 representative kinases (Homo sapiens, UniProt O00444); assay: DSF 100 kinase selectivity screen; details: protein PLK4; average of three replicates;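 further: compound tested at 20 µM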
T2 construct: Recombinant protein kinase domains with a concentration of 2 μM
T2 sequence (O00444 1-970): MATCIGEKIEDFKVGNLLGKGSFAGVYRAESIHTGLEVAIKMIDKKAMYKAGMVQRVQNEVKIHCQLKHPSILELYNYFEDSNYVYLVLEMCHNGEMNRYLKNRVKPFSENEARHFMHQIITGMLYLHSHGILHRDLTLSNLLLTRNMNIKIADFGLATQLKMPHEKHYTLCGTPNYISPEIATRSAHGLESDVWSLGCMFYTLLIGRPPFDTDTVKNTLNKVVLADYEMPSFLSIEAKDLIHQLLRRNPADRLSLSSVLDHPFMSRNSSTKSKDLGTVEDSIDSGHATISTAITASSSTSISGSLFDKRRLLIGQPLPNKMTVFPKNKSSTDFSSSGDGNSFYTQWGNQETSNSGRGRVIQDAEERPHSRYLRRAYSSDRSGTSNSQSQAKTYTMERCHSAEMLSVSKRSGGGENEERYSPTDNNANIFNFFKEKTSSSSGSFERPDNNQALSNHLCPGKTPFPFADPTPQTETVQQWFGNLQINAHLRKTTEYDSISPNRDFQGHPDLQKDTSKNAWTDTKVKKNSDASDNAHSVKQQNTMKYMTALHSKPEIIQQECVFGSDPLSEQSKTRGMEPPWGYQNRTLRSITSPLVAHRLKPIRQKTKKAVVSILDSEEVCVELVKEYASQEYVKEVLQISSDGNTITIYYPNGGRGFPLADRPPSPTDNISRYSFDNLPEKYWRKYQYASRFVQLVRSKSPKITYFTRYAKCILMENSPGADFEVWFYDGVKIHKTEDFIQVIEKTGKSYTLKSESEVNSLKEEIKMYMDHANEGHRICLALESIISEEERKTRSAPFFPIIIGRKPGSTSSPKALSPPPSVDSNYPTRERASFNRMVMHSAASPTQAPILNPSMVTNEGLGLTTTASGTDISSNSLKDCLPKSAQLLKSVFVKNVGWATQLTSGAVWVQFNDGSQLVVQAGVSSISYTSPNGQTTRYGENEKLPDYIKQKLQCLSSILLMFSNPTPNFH
Experimental: (§1) Recombinant protein kinase domains with a concentration of 2 μM were mixed with a 20 μM compound solution in dimethyl sulfoxide (DMSO), 20 mM Hepes (pH 7.5), and 500 mM NaCl. SYPRO Orange (5000×, Invitrogen) was added as a fluorescence probe (1μl/ml). Subsequently, temperature-dependent protein unfolding profiles were measured using the QuantStudio 5 realtime PCR machine (Thermo Fisher Scientific, Waltham, MA, USA). […] The temperature was raised with a step rate of 3°C/min. […] Differences in melting temperature are given as ΔTm values in degrees Celsius. […]

[2] = molecular target: T3, ~100 representative kinases (Homo sapiens, UniProt P21802); assay: DSF 100 kinase selectivity screen; details: protein FGFR2; average of three replicates;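 further: compound tested at 20 µM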
T3 construct: Recombinant protein kinase domains with a concentration of 2 μM
Experimental: as §1

[3] = molecular target: T4, ~100 representative kinases (Homo sapiens, UniProt Q96NX5); assay: DSF 100 kinase selectivity screen; details: Protein CAMK1G; average of three replicates;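 further: compound tested at 20 µM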
T4 construct: Recombinant protein kinase domains with a concentration of 2 μM
Experimental: as §1

[4] = molecular target: T5, ~100 representative kinases (Homo sapiens, UniProt P53779); assay: DSF 100 kinase selectivity screen; details: protein MAPK10; average of three replicates;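 further: compound tested at 20 µM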
T5 construct: Recombinant protein kinase domains with a concentration of 2 μM
Experimental: as §1

[5] = molecular target: T6, ~100 representative kinases (Homo sapiens, UniProt P68400); assay: DSF 100 kinase selectivity screen; details: Protein CK2A1; average of three replicates;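 further: compound tested at 20 µM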
T6 construct: Recombinant protein kinase domains with a concentration of 2 μM
Experimental: as §1

[6] = molecular target: T7, ~100 representative kinases (Homo sapiens, UniProt Q9NSY1); assay: DSF 100 kinase selectivity screen; details: Protein BMP2K; average of three replicates;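 further: compound tested at 20 µM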
T7 construct: Recombinant protein kinase domains with a concentration of 2 μM
Experimental: as §1

[7] = molecular target: T8, ~100 representative kinases (Homo sapiens, UniProt Q14680); assay: DSF 100 kinase selectivity screen; details: protein MELK; average of three replicates
T8 construct: Recombinant protein kinase domains with a concentration of 2 μM
Experimental: as §1

[8] = molecular target: T9, ~100 representative kinases (Homo sapiens, UniProt P34947); assay: DSF 100 kinase selectivity screen; details: protein GPRK5; average of three replicates
T9 construct: Recombinant protein kinase domains with a concentration of 2 μM
Experimental: as §1

[9] = molecular target: T10, ~100 representative kinases (Homo sapiens, UniProt Q00532); assay: DSF 100 kinase selectivity screen; details: Protein CDKL1; average of three replicates
T10 construct: Recombinant protein kinase domains with a concentration of 2 μM
Experimental: as §1

[10] = molecular target: T11, ~100 representative kinases (Homo sapiens, UniProt P19784); assay: DSF 100 kinase selectivity screen; details: Protein CK2A2; average of three replicates
T11 construct: Recombinant protein kinase domains with a concentration of 2 μM
Experimental: as §1

T3 sequence (P21802 22-821): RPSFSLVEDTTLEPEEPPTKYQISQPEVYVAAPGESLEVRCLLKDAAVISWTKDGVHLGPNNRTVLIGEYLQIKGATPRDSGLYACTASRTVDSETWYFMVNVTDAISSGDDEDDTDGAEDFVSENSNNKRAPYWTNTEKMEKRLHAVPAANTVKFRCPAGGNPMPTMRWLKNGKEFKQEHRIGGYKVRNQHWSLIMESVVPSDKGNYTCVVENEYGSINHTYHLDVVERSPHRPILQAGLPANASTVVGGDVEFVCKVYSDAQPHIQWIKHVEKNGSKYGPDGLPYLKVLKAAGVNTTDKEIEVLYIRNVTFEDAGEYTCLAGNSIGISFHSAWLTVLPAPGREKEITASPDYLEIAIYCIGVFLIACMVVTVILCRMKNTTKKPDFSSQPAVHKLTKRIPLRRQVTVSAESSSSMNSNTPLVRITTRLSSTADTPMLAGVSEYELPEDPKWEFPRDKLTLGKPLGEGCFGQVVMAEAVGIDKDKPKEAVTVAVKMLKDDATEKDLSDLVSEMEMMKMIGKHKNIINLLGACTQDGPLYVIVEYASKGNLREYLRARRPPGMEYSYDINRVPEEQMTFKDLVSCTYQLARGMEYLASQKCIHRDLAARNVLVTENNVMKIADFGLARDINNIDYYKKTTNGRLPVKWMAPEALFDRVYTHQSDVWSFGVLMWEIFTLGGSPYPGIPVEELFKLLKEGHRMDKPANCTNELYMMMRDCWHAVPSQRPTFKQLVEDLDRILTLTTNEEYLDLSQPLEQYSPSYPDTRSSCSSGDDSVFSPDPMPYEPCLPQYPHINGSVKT
T8 sequence (Q14680 whole entry, the tested form may be a part): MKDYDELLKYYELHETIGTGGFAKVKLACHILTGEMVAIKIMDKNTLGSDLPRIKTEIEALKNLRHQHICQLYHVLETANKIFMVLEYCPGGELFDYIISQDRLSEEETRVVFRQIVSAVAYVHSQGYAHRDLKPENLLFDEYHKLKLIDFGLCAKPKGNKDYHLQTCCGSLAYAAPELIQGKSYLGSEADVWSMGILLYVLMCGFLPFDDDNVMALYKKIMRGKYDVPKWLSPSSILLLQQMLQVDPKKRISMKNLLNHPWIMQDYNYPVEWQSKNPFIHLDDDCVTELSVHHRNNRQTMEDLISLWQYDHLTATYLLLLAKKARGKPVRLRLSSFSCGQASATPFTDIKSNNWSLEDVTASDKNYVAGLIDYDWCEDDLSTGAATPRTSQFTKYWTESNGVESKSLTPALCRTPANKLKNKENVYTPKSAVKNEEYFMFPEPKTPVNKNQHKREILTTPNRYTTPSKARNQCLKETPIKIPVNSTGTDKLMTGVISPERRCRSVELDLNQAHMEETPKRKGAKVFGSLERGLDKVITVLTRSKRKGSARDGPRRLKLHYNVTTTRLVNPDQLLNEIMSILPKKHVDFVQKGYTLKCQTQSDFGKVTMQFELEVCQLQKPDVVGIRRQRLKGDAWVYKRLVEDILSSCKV
T11 sequence (P19784 whole entry, the tested form may be a part): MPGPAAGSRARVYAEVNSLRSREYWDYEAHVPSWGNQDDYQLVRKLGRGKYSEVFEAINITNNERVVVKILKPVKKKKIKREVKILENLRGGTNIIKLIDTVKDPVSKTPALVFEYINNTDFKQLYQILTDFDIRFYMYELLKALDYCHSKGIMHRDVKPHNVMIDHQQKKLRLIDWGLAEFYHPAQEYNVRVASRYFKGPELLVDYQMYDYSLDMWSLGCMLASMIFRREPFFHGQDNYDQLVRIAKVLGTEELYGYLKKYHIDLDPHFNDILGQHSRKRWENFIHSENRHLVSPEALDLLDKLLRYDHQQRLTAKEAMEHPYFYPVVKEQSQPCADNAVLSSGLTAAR
T7 sequence (Q9NSY1 whole entry, the tested form may be a part): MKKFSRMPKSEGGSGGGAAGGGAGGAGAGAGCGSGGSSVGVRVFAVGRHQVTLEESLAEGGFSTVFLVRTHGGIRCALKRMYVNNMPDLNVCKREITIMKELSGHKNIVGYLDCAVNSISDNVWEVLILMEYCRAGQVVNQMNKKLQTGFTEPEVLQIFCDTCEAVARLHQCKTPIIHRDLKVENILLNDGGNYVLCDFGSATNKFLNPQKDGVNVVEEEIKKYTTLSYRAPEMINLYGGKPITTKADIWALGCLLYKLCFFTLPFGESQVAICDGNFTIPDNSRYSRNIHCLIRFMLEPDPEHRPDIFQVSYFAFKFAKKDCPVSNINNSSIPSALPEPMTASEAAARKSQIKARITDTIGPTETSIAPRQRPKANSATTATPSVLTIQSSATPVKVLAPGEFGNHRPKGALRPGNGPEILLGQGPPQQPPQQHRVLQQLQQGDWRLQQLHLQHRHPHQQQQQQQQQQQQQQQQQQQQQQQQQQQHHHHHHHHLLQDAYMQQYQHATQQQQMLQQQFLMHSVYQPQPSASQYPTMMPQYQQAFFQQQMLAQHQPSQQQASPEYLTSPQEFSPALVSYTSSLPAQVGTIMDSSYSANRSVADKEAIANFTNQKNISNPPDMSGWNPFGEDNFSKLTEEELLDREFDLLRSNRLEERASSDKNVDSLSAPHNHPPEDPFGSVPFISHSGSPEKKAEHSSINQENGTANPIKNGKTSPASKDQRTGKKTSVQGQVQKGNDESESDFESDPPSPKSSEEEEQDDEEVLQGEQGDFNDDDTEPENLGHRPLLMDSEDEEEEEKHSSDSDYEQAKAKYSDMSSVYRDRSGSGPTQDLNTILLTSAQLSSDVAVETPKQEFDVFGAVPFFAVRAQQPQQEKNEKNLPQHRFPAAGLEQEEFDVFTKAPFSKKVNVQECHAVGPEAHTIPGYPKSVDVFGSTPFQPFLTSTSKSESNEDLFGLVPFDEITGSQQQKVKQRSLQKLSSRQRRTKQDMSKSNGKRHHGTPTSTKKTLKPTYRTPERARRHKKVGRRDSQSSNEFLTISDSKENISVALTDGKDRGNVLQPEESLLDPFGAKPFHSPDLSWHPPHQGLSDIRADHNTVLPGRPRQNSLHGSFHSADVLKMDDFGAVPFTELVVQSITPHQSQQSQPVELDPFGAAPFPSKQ
T5 sequence (P53779 whole entry, the tested form may be a part): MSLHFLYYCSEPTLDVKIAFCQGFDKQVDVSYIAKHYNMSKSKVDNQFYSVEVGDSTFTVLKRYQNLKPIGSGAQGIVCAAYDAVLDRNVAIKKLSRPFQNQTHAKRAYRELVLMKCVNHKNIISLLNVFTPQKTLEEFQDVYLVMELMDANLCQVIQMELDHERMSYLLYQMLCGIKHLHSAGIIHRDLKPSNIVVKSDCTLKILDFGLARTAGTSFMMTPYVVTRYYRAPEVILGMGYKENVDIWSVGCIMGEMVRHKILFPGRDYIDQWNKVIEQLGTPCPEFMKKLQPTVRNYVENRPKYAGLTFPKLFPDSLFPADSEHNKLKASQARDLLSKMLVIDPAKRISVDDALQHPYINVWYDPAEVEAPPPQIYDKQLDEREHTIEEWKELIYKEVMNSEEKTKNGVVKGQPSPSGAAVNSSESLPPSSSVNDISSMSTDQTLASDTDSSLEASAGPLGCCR
T9 sequence (P34947 whole entry, the tested form may be a part): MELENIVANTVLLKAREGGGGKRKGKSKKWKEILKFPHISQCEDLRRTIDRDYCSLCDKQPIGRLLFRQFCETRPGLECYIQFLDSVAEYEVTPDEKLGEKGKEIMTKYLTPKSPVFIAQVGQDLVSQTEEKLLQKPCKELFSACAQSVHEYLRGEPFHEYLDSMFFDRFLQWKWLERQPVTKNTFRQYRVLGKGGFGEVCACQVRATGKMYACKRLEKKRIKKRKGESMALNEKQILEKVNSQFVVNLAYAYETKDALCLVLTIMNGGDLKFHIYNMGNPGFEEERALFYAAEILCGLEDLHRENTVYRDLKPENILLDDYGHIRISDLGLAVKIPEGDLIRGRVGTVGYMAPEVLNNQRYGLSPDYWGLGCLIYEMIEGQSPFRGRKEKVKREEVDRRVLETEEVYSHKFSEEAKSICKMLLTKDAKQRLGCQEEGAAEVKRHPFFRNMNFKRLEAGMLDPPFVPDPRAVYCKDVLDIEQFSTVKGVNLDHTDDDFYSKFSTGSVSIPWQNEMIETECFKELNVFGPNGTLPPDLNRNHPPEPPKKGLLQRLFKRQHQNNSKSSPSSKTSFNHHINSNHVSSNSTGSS
T6 sequence (P68400 whole entry, the tested form may be a part): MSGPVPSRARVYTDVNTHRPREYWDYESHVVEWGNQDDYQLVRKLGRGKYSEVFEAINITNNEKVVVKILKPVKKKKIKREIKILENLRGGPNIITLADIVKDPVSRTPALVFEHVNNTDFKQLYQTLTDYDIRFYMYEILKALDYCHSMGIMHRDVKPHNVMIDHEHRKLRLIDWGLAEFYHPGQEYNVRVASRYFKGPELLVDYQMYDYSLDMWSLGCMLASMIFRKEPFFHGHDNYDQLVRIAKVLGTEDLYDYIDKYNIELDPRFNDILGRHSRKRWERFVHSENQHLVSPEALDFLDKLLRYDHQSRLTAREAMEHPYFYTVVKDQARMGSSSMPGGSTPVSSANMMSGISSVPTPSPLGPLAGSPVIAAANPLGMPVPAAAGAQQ
T10 sequence (Q00532 whole entry, the tested form may be a part): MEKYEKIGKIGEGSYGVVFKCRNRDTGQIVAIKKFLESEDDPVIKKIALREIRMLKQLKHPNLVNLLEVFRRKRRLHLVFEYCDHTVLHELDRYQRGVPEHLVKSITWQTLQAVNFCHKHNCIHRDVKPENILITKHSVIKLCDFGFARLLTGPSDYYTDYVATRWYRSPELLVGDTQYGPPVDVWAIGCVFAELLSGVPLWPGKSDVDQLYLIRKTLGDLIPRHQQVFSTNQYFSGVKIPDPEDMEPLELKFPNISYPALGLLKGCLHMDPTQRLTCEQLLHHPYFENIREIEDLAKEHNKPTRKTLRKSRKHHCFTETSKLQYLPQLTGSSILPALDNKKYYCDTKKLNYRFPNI

| Compound | ∆Tm (K) (LRRK2^KW) | dTm [1] | dTm [2] | dTm [3] | dTm [4] | dTm [5] | dTm [6] | dTm [7] | dTm [8] | dTm [9] | dTm [10] | ∆Tm (K) (LRRK2^KW; listed as 30 (RN277)) | ∆Tm (K) (LRRK2^KW; listed as RN277) | ∆Tm (K) (LRRK2^KW; listed as 32 (RN341)) | ∆Tm (K) (LRRK2^KW; listed as RN341) | dTm LRRK2(KW) [K] (LRRK2^KW; screen of 31 type-II inhibitors, Table S1) |
| --- | --- | --- | --- | --- | --- | --- | --- | --- | --- | --- | --- | --- | --- | --- | --- | --- |
| O=C(Nc1cccc(-c2c[nH]c3ncnc(N4CCOCC4)c23)c1)C1(C(=O)Nc2ccc(F)cc2F)CC1 [Compound 23] | 9.2 K | 7.20 K | 2.08 K | 1.64 K | -0.75 K | -0.33 K | 7.18 K | 13.56 K | -0.45 K | 1.97 K | 1.02 K | – | – | – | – | – |
| O=C(Nc1cccc(-c2c[nH]c3ncnc(N4CCOCC4)c23)c1)C1(C(=O)Nc2cc(Br)c(F)cc2F)CC1 [Compound 25] | 9.0 K | 0.00 K | 3.32 K | 4.91 K | 3.64 K | -3.68 K | 6.63 K | 14.53 K | 0.32 K | 1.69 K | 1.70 K | – | – | – | – | – |
| O=C(Nc1cccc(-c2c[nH]c3ncnc(N4CCOCC4)c23)c1)C1(C(=O)Nc2ccc(F)c(Br)c2F)CC1 [Compound 26] | 10.7 K | 5.97 K | 3.74 K | 4.69 K | 5.85 K | -1.70 K | 9.57 K | 13.99 K | 0.25 K | 1.85 K | 4.72 K | – | – | – | – | – |
| O=C(Nc1cc(F)cc(Br)c1)C1(C(=O)Nc2cccc(-c3c[nH]c4ncnc(N5CCOCC5)c34)c2)CC1 [Compound 27] | 10.2 K | 0.00 K | 2.02 K | 3.15 K | 5.93 K | -1.92 K | 5.45 K | 12.52 K | 0.40 K | 0.61 K | 2.42 K | – | – | – | – | – |
| CC(=O)N1CCN(c2nc(Cl)nc3[nH]cc(-c4cccc(NC(=O)Nc5cc(C(C)(C)C)nn5-c5ccc(C)cc5)c4)c23)CC1 [Compound 31] | 18.0 K | 0.19 K | -0.09 K | 0.05 K | 0.82 K | 0.26 K | 1.28 K | 2.26 K | -1.15 K | 5.56 K | -3.51 K | – | – | – | – | – |
| CCSc1nc(NC)c2c(-c3cccc(NC(=O)Nc4cc(C(C)(C)C)nn4-c4ccc(C)cc4)c3)c[nH]c2n1 [Compound 32] | – | 0.48 K | -0.15 K | 0.27 K | 3.75 K | 0.23 K | 0.75 K | 1.19 K | -0.61 K | 9.64 K | -0.62 K | – | – | 19.9 K | 20 K | – |
| COc1cc2c(Oc3ccc(NC(=O)C4(C(=O)Nc5ccc(F)cc5)CC4)cc3F)ccnc2cc1OCCCN1CCOCC1 [Foretinib, reference compound] | 12.1 ± 0.1 K | 16.61 K | 7.20 K | 3.09 K | 1.66 K | 0.00 K | 1.65 K | 7.59 K | 0.60 K | 1.22 K | 0.00 K | – | – | – | – | 11.5 K |

Further lines, with some results ahead:

| ∆Tm (K) (LRRK2^KW) | dTm [1] | dTm [2] | dTm [3] | dTm [4] | dTm [5] | dTm [6] | dTm [7] | dTm [8] | dTm [9] | dTm [10] | ∆Tm (K) (LRRK2^KW; listed as 30 (RN277)) | ∆Tm (K) (LRRK2^KW; listed as RN277) | Compound | ∆Tm (K) (LRRK2^KW; listed as 32 (RN341)) | ∆Tm (K) (LRRK2^KW; listed as RN341) | dTm LRRK2(KW) [K] (LRRK2^KW; screen of 31 type-II inhibitors, Table S1) |
| --- | --- | --- | --- | --- | --- | --- | --- | --- | --- | --- | --- | --- | --- | --- | --- | --- |
| 8.5 K | 7.17 K | 2.08 K | 0.49 K | -0.11 K | 0.65 K | 6.47 K | 12.59 K | 0.16 K | 1.46 K | -0.63 K | – | – | Cc1cc(F)ccc1NC(=O)C1(C(=O)Nc2cccc(-c3c[nH]c4ncnc(N5CCOCC5)c34)c2)CC1 [Compound 24] | – | – | – |
| 20.0 K | 3.84 K | 10.62 K | 6.01 K | 4.27 K | 0.00 K | 6.24 K | 2.71 K | 0.98 K | 8.21 K | -0.38 K | – | – | CC(C)(C)c1cc(NC(=O)Nc2cccc(-c3c[nH]c4ncnc(N5CCOCC5)c34)c2)n(-c2ccc3ncccc3c2)n1 [Compound 28] | – | – | – |
| 21.0 K | 4.74 K | -0.19 K | 3.88 K | 3.60 K | 0.69 K | 7.54 K | 6.41 K | 0.00 K | 10.84 K | -2.10 K | – | – | Cc1ccc(-n2nc(C(C)(C)C)cc2NC(=O)Nc2cccc(-c3c[nH]c4ncnc(N5CCOCC5)c34)c2)cc1 [Compound 29] | – | – | – |
| – | 0.26 K | -0.31 K | -0.26 K | -0.06 K | 0.59 K | 1.64 K | 2.91 K | -3.24 K | 3.90 K | -4.20 K | 18.0 K | 18 K | Cc1ccc(-n2nc(C(C)(C)C)cc2NC(=O)Nc2cccc(-c3c[nH]c4nc(Cl)nc(N5CCOCC5)c34)c2)cc1 [Compound 30] | – | – | – |
| 16.0 K | 10.15 K | -0.36 K | 4.24 K | 5.50 K | 2.03 K | 1.71 K | 1.11 K | 0.46 K | 0.37 K | 1.00 K | – | – | COc1cc(C(=O)N2CCOCC2)c(F)cc1Nc1nc(N(C)C)c2c(Cl)c[nH]c2n1 [Compound 36] | – | – | – |
